These results are taken from ChEMBL document CHEMBL5113425, “Preparation of a multifunctional photoactivated prodrug on a streptavidin scaffold bearing a DNA aptamer” (Bioorg Med Chem Lett, 2022).

Calls of active or inactive are those of the source. No cut-off for these calls is given here.

Data set [1] has as its system SK-BR-3. As to the kind of experiment: Cytotoxicity in human SK-BR-3 cells assessed as reduction in cell viability at 50 to 500 nM incubated for 72 hrs in presence of 15 mins photoirradiation at 365 nm by WST assay. In kind it is functional, cell-based. To be noted: dose 50-500 nM.
Data set [2] deals with SK-BR-3. As to the kind of experiment: Cytotoxicity in human SK-BR-3 cells assessed as reduction in cell viability at 50 to 500 nM incubated for 72 hrs in absence of 15 mins photoirradiation at 365 nm by WST assay. It counts as toxicity, cell-based. Particulars: sk-br-3, 72 h, 0.5 µM, dose 50-500 nM.

Take `CC[C@@]1(OC(=O)CCCCNC(=O)OC(C)c2cc(OC)c(OCCCC(=O)NCCN3C(=O)CC(NCCNC(=O)CCCC[C@@H]4SC[C@H]5NC(=O)N[C@@H]45)C3=O)cc2[N+](=O)[O-])C(=O)OCc2c1cc1n(c2=O)Cc2cc3ccccc3nc2-1` (some centres not stated): in the data set with SK-BR-3 [1], the outcome was Active. Also, in the data set on SK-BR-3 [2], the Activity result is reported as “Non-Toxic”.
